In patent US20240180153A1, “METHODS FOR MANAGING DISEASES IN CUT FLOWERS” (Niacet Corporation, priority 2022, published 2024):

Key:
[1] = tested on: A. alternata; assay: In-vitro mycelium growth inhibition on CaP-amended PDA; type: cell-based, Alternaria alternata
Protocol: (§1) A 10% buffered (pH 6.0) stock solution in autoclaved de-ionized water was used to prepare working calcium propionate solutions. Initially, five concentrations of 0, 1, 5, 25, and 100 ppm were screened for determining the effect of calcium propionate on fungal mycelia. Higher concentrations of 300, 900, 2700, and 8100 ppm were also tested in mycelium growth inhibition assays to determine EC50 values for isolates sensitive and resistant to FRAC codes 1, 2, 7, 9, 11, 12, 13, and 17 (i.e., benzimidazoles, quinone outside inhibitors, dicarboxamides, succinate dehydrogenases, phenylpyrroles, demethylation inhibitor fungicides, and anilinopyrimidines respectively).
(§2) To prepare different concentrations, calculated amount of stock solution was mixed in autoclaved (121 C for 20 mins) potato dextrose agar (PDA) after the media cooled down to appropriate temperature. […] Mycelium growth diameter was measured using a vernier caliper just before the mycelium growth of two colonies in the control media plate overlapped. […] Mycelium inhibition rates were calculated and EC50 values were determined. Additionally, the fungistatic activity of calcium propionate was determined at 8000 mg/L (0.8%; pH 6.0) concentration, buffered at pH 6 with acetic acid. […] Mycelium growth was recorded every 24 h using a vernier caliper until fungal mycelia in control treatments reached the 90 mm in diameter petri dish rim.

[2] = tested on: B. cinerea isolate PDRK3; assay: Botrytis blight severity on harvested petunia flowers after spray application; type: in vivo, Botrytis cinerea
Protocol: (§3) Calcium propionate concentrations were prepared by adding appropriate amounts in de-ionized water and tested in four separate experiments. Spray applications at 1.25%, 2.5%, and 5% (pH 7.7 and buffered with acetic acid to pH 6.5) (first experiment) and 0.5%, 0.75%, and 1% buffered with acetic acid to pH 6.5 (second experiment) were made on harvested open petunia flowers. Separately, spray applications at 0.1%, 0.2%, 0.3%, (third experiment) 0.5%, 0.75%, and 1% (fourth experiment) buffered with acetic acid to pH 6.5 were made on harvested open petunia flowers. Approximately 24 hours after spray applications, the flowers were arranged in humid chambers maintaining relative humidity of 98-100% and inoculated by spraying spore suspension (10^4 spores/ml) of B. cinerea isolate PDRK3 (Bennett et al. 2019). Fungicide applications and spore suspensions were misted onto flowers until runoff to completely cover the flower using a 4 oz clear PET plastic bullet bottle with white mist sprayer (The Cary Company, Addison, IL). The petunia flowers were evaluated 72 h after inoculation to observe botrytis blight severity and phytotoxicity using ratings from 0 to 8 scale based on the area of infected corolla (0=no infection; 8=complete necrosis), modified from Bennett (2019). Pydiflumethophen+fludioxonil (sold under the trademark MIRAVIS™ PRIME; Syngenta, Raleigh, NC) was used as a commercial fungicide control along with a non-inoculated and an inoculated control. Ten flowers were evaluated per treatment and the entire experiment was repeated twice.

[3] = tested on: M. fructicola; assay: In-vitro mycelium growth inhibition on CaP-amended PDA; type: cell-based, Monilinia fructicola; settings: six isolates, pH 6.0, 25° C. dark
Protocol: as §1, §2

[4] = tested on: B. cinerea; assay: as above; type: cell-based, Botrytis cinerea; settings: six isolates, pH 6.0, 25° C. dark
Protocol: as §1, §2

[5] = tested on: C. siamense; assay: as above; type: cell-based, Colletotrichum siamense
Protocol: as §1, §2

[6] = tested on: all four pathogens (B. cinerea, M. fructicola, A. alternata, C. siamense); assay: In-vitro mycelium growth inhibition, statements pooled over all four pathogens; type: cell-based
Protocol: as §1
To prepare different concentrations, calculated amount of stock solution was mixed in autoclaved (121 C for 20 mins) potato dextrose agar (PDA) after the media cooled down to appropriate temperature. Amended media with different CaP concentrations was poured in to 15×100 mm petri dishes (VWR International, LLC., Radnor, PA), and left to solidify. For mycelium growth, 5 mm plugs were obtained from the edges of freshly grown seven-day old cultures from all 24 isolates of different fungal genera including Alternaria sp., Botrytis sp., Colletotrichum sp., and Monilinia sp. (Table 1). Two culture plugs of each isolate were placed near opposite edges of individual CaP amended PDA media plates. The media plates with no CaP (0 ppm) served as control treatment. Inoculated plates were then incubated at 25° C. in dark for 7-10 days. Mycelium growth diameter was measured using a vernier caliper just before the mycelium growth of two colonies in the control media plate overlapped. […] Mycelium inhibition rates were calculated and EC50 values were determined. Additionally, the fungistatic activity of calcium propionate was determined at 8000 mg/L (0.8%; pH 6.0) concentration, buffered at pH 6 with acetic acid. […] Mycelium growth was recorded every 24 h using a vernier caliper until fungal mycelia in control treatments reached the 90 mm in diameter petri dish rim.

[7] = tested on: Botrytis cinerea isolate S4GBR4O; assay: Botrytis blight severity on cut roses after submerging flower-head; type: in vivo
Protocol: (§4) Calcium propionate concentrations of 0.1%, 0.2%, 0.3%, 0.5%, 0.75%, 1% (pH 6.0), were prepared and tested against Botrytis blight on cut roses. Treatments were applied by submerging flower-head of 15 sec in the solutions of the treatments and gently moving the flowers up and down to allow the petals to open and help the product get in touch with the most internal petals. Then, the flowers were placed vertically in open PVC boxes over heavy-duty thermoformed trays (Greenhouse Megastore, Danville, IL) containing 3 L of water. The boxes and trays were placed inside open humid chambers for 24 h, then the flowers were sprayed with a Botrytis cinerea spore suspension at 10^5 spores/ml from the previously characterized isolate S4GBR4O (Muñoz et al., 2019). The humid chambers were closed, and data collection of disease severity was taken 3, 5, and 7 days after the inoculation. Relative humidity in the humid chambers was maintained in a range of 97-100% which was verified using a psychrometer (RH300, Extech Instruments, Nashua, NH, US). Observational data on phytotoxicity symptoms were also collected. Additionally, an inoculated control, Pydiflumethophen+Fludioxonil (sold under the trademark MIRAVIS™ PRIME; Syngenta, Raleigh, NC), and a non-inoculated treatment were included in the evaluation. The experiment with CaP treatments of 0.5%, 0.75%, and 1% (pH 6.0) were conducted only once due to phytotoxicity issues. All lower dose treatments were performed twice.

[8] = tested on: petunia flowers; assay: Phytotoxicity on harvested petunia flowers after spray application; type: in vivo, Petuniaxhybrida 'Dreams burgundy picotee'
Protocol: as §3

[9] = tested on: cut roses; assay: Phytotoxicity on cut roses after submerging flower-head; type: in vivo, cultivar Orange Crush
Protocol: as §4

[10] = 8000 ppm (0.8%; pH 6.0), after 2-4 days, growth rate reaching untreated control
[11] = six isolates, amended PDA, pH 6.0, 25° C. dark

SMILES: CCC(=O)[O-].CCC(=O)[O-].[Ca+2] [CaP, calcium propionate]
- mycelium growth recovery after initial inhibition [1, 10]: recovered quickly
- mean EC50 mycelium growth [1, 11]: 1354.87 mg/L
- control efficacy with increase in concentration ([2]; 0.75% to 1% (fourth experiment) and 0.1% to 0.3% (third experiment), pH 6.5): did not correspond to an increase in control efficacy
- disease severity ([2]; experiment three, all CaP treatments 0.1%, 0.2%, 0.3% (pH 6.5)): reduced disease severity
- botrytis blight control compared to the 0.5% treatment ([2]; experiment two, 0.75% and 1.0% CaP (pH 6.5)): significantly better control
- disease severity ([2]; experiment two, all CaP treatments 0.5%, 0.75%, 1% (pH 6.5)): reduced disease severity
- botrytis blight control, lower pH vs higher pH treatment ([2]; first experiment, 1.25% CaP, pH 6.5 compared to pH 7.7): significantly better control
- control efficacy with increase in concentration ([2]; first experiment, increase from 1.25% to 5%): did not correspond to an increase in control efficacy
- botrytis blight severity vs inoculated control ([2]; first experiment, spray 1.25%, 2.5%, and 5% (pH 6.5 and 7.7), 72 h after inoculation): reduced botrytis blight compared to the inoculated control
- botrytis blight severity vs inoculated control ([2]; third and fourth experiments, all CaP concentrations 0.1%-1% at pH 6.5): reduced botrytis blight compared to the inoculated control
- mean EC50 mycelium growth [3]: 618.25 mg/L
- mean EC50 mycelium growth [4]: 527.77 mg/L
- mycelium growth recovery after initial inhibition [5, 10]: recovered quickly
- mean EC50 mycelium growth [5, 11]: 1310.34 mg/L
- mycelium growth inhibition ([6]; 8000 ppm (0.8%; pH 6.0), after 2-4 days of incubation): ~100%
- maximum inhibition of fungal mycelium growth ([6]; CaP 1, 5, 25, and 100 mg/L, preliminary experiments): below 20%
- mean EC50 of fungicide-sensitive versus fungicide-resistant isolates ([6]; isolates sensitive vs resistant to commonly used FRAC groups): not significantly different
- botrytis blight severity, difference to inoculated control ([7]; first rose experiment, 0.5%, 0.75%, and 1% CaP (pH 6.0)): No statistical differences
- efficacy against botrytis blight compared to grower standard ([7]; second rose experiment, 0.1% (pH 6.0) CaP): as effective as the grower standard Miravis Prime
- efficacy against botrytis blight compared to 0.3% CaP ([7]; second rose experiment, 0.1% CaP (pH 6.0)): significantly higher efficacy
- phytotoxicity ([8]; experiment three, 0.1% (pH 6.5)): barely noticeable
- phytotoxicity, difference to untreated control ([8]; experiment three, 0.1% CaP (pH 6.5)): no significant difference
- phytotoxicity ([8]; experiment three, lower concentrations 0.1%-0.3% (pH 6.5)): very little to no phytotoxicity
- phytotoxicity ([8]; experiment two, 0.5% (pH 6.5)): barely noticeable
- phytotoxicity ([8]; experiment two, 0.75% and 1% (pH 6.5)): noticeable phytotoxicity
- phytotoxicity (bleaching of petunia flower tissue) ([8]; first experiment, 1.25%, 2.5%, and 5% CaP (pH 6.5 and 7.7)): Evidence of phytotoxicity was observed
- phytotoxicity (bleaching of petunia flower tissue) ([8]; fourth experiment, 0.5%, 0.75%, and 1% CaP (pH 6.5), increased with increasing concentrations): Evidence of phytotoxicity was observed
- phytotoxicity ([9]; 0.1% CaP (pH 6.0)): no to barely noticeable phytotoxicity
- phytotoxicity symptoms ([9]; 0.3% and 0.2% CaP (pH 6.0)): minor symptoms of phytotoxicity
- size of phytotoxicity spots ([9]; 0.3% and 0.2% CaP (pH 6.0)): 1-2 mm
- phytotoxicity symptoms ([9]; 0.5% CaP (pH 6.0) and higher, rounded areas in outermost petals, discolored edges): phytotoxicity symptoms were observed
